Measured values taken from ChEMBL document CHEMBL3739326, “ent-Kaurene Glycosides from Ageratina cylindrica” (J Nat Prod, 2015).

Legend:
Entamoeba histolytica = experiment: Antiprotozoal activity against Entamoeba histolytica HM-1:IMSS; format: functional, organism-based
Giardia intestinalis = experiment: Antiprotozoal activity against Giardia lamblia IMSS:1090:1; format: functional, organism-based; details: Giardia duodenalis

SMILES | IC50 (Entamoeba histolytica) | IC50 (Giardia intestinalis)
C=C1[C@@H]2CC[C@H]3[C@]4(C)CCC[C@@](C)(C(=O)O[C@@H]5O[C@H](CO)[C@@H](O)[C@H](O)[C@H]5O)[C@H]4CC[C@]3(C2)[C@@H]1O[C@H]1O[C@@H](C)[C@@H](O)[C@@H](OC(C)=O)[C@@H]1O | 52.7 µM | 48.9 µM
C=C1[C@@H]2CC[C@H]3[C@]4(C)CCC[C@@](C)(C(=O)O)[C@H]4CC[C@]3(C2)[C@@H]1O[C@H]1O[C@@H](C)[C@@H](O)[C@@H](O)[C@@H]1O | 73.5 µM | 98.5 µM
C=C1[C@@H]2CC[C@H]3[C@]4(C)CCC[C@@](C)(C(=O)O[C@@H]5O[C@H](CO)[C@@H](O)[C@H](O)[C@H]5O)[C@H]4CC[C@]3(C2)[C@@H]1O[C@H]1O[C@@H](C)[C@@H](OC(C)=O)[C@@H](O)[C@@H]1O | 49.5 µM | 69.5 µM
C=C1[C@@H]2CC[C@H]3[C@]4(C)CCC[C@@](C)(C(=O)O[C@@H]5O[C@H](CO)[C@@H](O)[C@H](O)[C@H]5O)[C@H]4CC[C@]3(C2)[C@@H]1O[C@H]1O[C@@H](C)[C@@H](O)[C@@H](O)[C@@H]1O | 43.3 µM | 41.9 µM
